Results: PubChem BioAssay (NCI)
“And” between values parts separate entries of the source, which are not always exact repeats. Identical values can stand only once.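 Results reflect a 48-hour exposure of cells in 96-well plates to compound at five concentrations. GI50 marks 50% less growth. TGI: concentration producing complete growth inhibition.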

The compounds below were run on MDA-MB-468 breast (assay: growth of human tumour cells (NCI), 48 h).

| Structure (SMILES) | GI50 | TGI |
| --- | --- | --- |
| COc1cc(C2C(C(=O)OCc3ccccc3)=C(C)NC(C)=C2C(=O)OCc2ccccc2)cc(OC)c1OC | 2.43 µM | > 100 µM |
| O=C(Nc1ccc(O)c(NS(=O)(=O)c2ccc(F)cc2)c1)c1ccc(-c2ccccc2)cc1 | 2.48 µM | 10.8 µM |
| Cc1nc2sc(C(=O)Nc3cccc(Cl)c3C)c(N)c2cc1C(=O)c1ccccc1 | 0.126 µM | 0.889 µM |
| CC#CC(=O)N[C@H]1CCCN(c2c(F)cc(C(N)=O)c3[nH]c(C)c(C)c23)C1 | 11.8 µM | 27 µM |
| O=C(Nc1cccc(-n2cc(-c3ccncc3)c(-c3ccc(O)c(Cl)c3)n2)c1)c1ccc(N2CCOCC2)c(C(F)(F)F)c1 | 35.3 µM | > 50 µM |
| CC(=O)OC1CC(C)c2c(Cl)ncnc21 (configuration not stated) | > 100 µM | > 100 µM |
| CCNC(=O)c1ccc2c(c1)nc(-c1ccc(Cl)cc1)n2-c1cc(C(C)(C)C)[nH]n1 | 2.26 µM | 8.3 µM |
| Cc1cccc2c1NC(=O)C2(c1ccc(O)cc1)c1ccc(O)cc1 | < 0.0181 µM | 4.24 µM |
| O=c1cc(-c2ccccc2)nc2cc(-c3ccco3)[nH]n12 | 2.89 µM | 59.5 µM |
| CCc1cccc(CC)c1NC(=O)c1ccn2c1CCc1cnc(Nc3ccc(N4CCN(C)CC4)cc3OC)nc1-2 | 2.1 µM | 5.91 µM |
| O=C1C(Cl)=C(Nc2ccccn2)C(=O)c2ccccc21 | 1.99 µM | 4.39 µM |
| COc1ccc(C(=O)c2cc(OC)c(OC)c(OC)c2)cc1/C=C/C(=O)c1ccc2c(c1)OCO2 | 1.44 µM | 4.06 µM |
| O=C(Nc1ccc(Cl)cc1F)c1cc(Cl)ccc1O | 0.429 µM | 3.96 µM |
| c1ccc(C2=NN[C@H](c3cn(-c4ccccc4)nc3-c3ccccc3)C2)cc1 | 4.18 µM | > 100 µM |
| OCCN1CCN(c2nc(Nc3ccc(-c4nc5ccccc5[nH]4)cc3)c3cn[nH]c3n2)CC1 | 1.69 µM | 3.23 µM |
| O=C1c2ccccc2CCC1(Br)Br | 1.2 µM | 2.95 µM |
| COc1cc(/C=N/Nc2ncnc3c2cnn3Cc2ccccc2)ccc1O | 7.88 µM | > 25 µM |
| COc1cccc2cc(-c3nc(C4CCC(C(=O)O)CC4)n4ncnc(N)c34)[nH]c12 (configuration not stated) | 0.185 µM and 0.257 µM | 1.09 µM and 3 µM |

| Structure (SMILES) | GI50 | TGI |
| --- | --- | --- |
| CN1CCN(CCCN2c3ccccc3Sc3ccc(C(F)(F)F)cc32)CC1 | 1.52 µM | 3.19 µM |
| CCOC(=O)c1c(NC(=O)c2ccccc2C(F)(F)F)sc2c1CCC(=O)C2 | 2.35 µM | 7.52 µM |
| CS(=O)(=O)c1ccc(-c2[nH]c3ccc(F)cc3c2/C=N/NC(N)=S)cc1 | 2.67 µM | 13.4 µM |
| CC(=O)Nc1ccc(S(=O)(=O)c2ccc(NC(C)=O)cc2)cc1 | 64.8 µM | > 100 µM |
| COc1cc(C(=O)Nc2cc(O)c(C/C=C(\C)CCC=C(C)C)c(O)c2)cc2c1O[C@]1(C)CC[C@@H](O)C(C)(C)[C@H]1C2 | 0.816 µM and 0.212 µM | 4.95 µM |
| CCCN(CCC)c1ccc(/C=N/NC(=O)c2cccnc2)cc1 | 16.4 µM | 84.2 µM |
| Cc1csc(-c2ccc3c(c2)COC3(CCCN(C)C)c2ccc(F)cc2)c1 (configuration not stated) | 1.7 µM | 3.38 µM |
| Cc1[nH]c2ccccc2c1C1=CC(=O)C=CC1=O | 3.1 µM | 11.2 µM |
| CCCCC/C=C\C/C=C/CCCCCCCCNC(=O)Nc1ccc([N+](=O)[O-])cc1 | 7.63 µM | 73 µM |
| CC(=O)OC[C@@]12Oc3c(cccc3-c3ccc(O)c4c3O[C@]3(COC(C)=O)C(=C4O)C(=O)C[C@H](C)[C@@H]3OC(C)=O)C(O)=C1C(=O)C[C@H](C)[C@@H]2OC(C)=O | 15.1 µM | 48.7 µM |
| N=C(N)c1ccc(-c2ccc(-c3ccc(Cl)c(Cl)c3)o2)nc1 | 1.82 µM | 3.56 µM |
| O=C1CCCC(=O)C1C(=O)c1ccc(C(F)(F)F)cc1[N+](=O)[O-] | > 100 µM | > 100 µM |
| CN1CCN(CCCOc2ccc3nc(Nc4ccc(C(F)(F)F)c(Cl)c4)ccc3c2)CC1 | 1.54 µM | 3.16 µM |
| CC(C)NCCCCCNc1cc(O)cc2cccnc12 | 2.29 µM | 6.2 µM |
| CNC(=O)c1c(NC(=O)c2ccc(C(C)C)cc2)sc2c1CCC(=O)C2 | 0.45 µM | 2.33 µM |
| COc1ccc2c(c1)c(-c1nc(-c3cn(C)c4ncccc34)cs1)cn2CCCCN1CCOCC1 | 1.34 µM | 3.08 µM |
| N#C/C(=C\c1ccc([N+](=O)[O-])s1)c1nc2cc(Br)ccc2s1 | 1.89 µM | 5.42 µM |
| Nc1ncnc2c1c(C(=O)NO)cn2C1OC(CO)C(O)C1O (configuration not stated) | 0.115 µM | 0.908 µM |
